From patent US8263632B2, “Aminopyridine derivatives having Aurora A selective inhibitory action” (Vertex Pharmaceuticals Incoporated, priority 2009, dated 2012)
Like-named read-outs stand apart in the source and are kept apart here.

What was measured:
Aurora A = target: T1, Aurora A (Homo sapiens, UniProt O14965); assay: Aurora A inhibitory action (33P-ATP kinase assay, Kemptide substrate); format: biochemical
T1 construct: histidine tag (N); made in house; host or cells: Escherichia coli BL21-CodonPlus(DE3)-RIL
T1 sequence (O14965 1-403): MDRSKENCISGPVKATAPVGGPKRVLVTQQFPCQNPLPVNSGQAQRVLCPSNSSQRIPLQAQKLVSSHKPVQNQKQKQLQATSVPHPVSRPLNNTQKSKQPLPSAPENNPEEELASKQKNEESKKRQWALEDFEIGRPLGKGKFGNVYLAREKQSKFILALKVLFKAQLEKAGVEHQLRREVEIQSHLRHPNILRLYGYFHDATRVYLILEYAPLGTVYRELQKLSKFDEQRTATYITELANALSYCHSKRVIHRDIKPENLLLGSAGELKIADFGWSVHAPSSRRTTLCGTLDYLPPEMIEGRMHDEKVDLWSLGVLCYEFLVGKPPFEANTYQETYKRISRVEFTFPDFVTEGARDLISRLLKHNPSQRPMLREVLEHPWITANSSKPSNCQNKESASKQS
Experimental: (§1) The Escherichia coli cells were recovered and solubilized, and then the histidine-tagged Aurora A protein was adsorbed onto a nickel chelate column and eluted from the column with imidazole. The active fraction was desalted with a desalting column to give a pure enzyme.
Then, 10 μL of 350 mM phosphate buffer was added to the reaction system to stop the reaction. The substrate peptide was adsorbed on a P81 paper filter 96-well plate and then washed with 130 mM phosphate buffer for several times. The radiation activity of the peptide was measured with a liquid scintillation counter. The [γ-^33P] labeled ATP was purchased from Amersham Biosciences Co., Ltd.

Aurora B = target: T2, Aurora B (Homo sapiens, UniProt Q96GD4); assay: Aurora B inhibitory action (33P-ATP kinase assay, Kemptide substrate); format: biochemical; details: 100 μM unlabeled ATP, 100 μM substrate peptide, 30° C. for 20 minutes
T2 construct: histidine tag (N); made in house; host or cells: Escherichia coli BL21-CodonPlus(DE3)-RIL
Description: Aurora B Inhibitory Action
(1) Purification of Aurora B
as §1, with “cDNA of Aurora B having histidine tag fused at the amino terminal was integrated into an expression vector, which was then highly expressed in Escherichia coli BL21-CodonPlus(DE3)-RIL cells. The Escherichia” for “The Escherichia”
(2) Measurement of activity of Aurora B
For measurement of the activity of Aurora B, the substrate used was Kemptide (Leu-Arg-Arg-Ala-Ser-Leu-Gly) (SEQ. ID. NO.: 1), a synthetic peptide purchased from Sigma-Aldrich, Inc. [Certificate of analysis (Upstate, Inc.)].
Reaction was conducted by a partial modification of the method of activity measurement for Aurora A. The amount of the reaction liquid was 21.1 μL, and the composition of the reaction buffer (R2 buffer) was 50 mM Tris-hydrochloride buffer (pH 7.4)/15 mM magnesium acetate/0.2 mM ethylenediamine-N,N,N′,N′-tetraacetate (EDTA). To this, purified Aurora B, 100 μM of a substrate peptide, 100 μM of unlabeled adenosine triphosphate (ATP) and 1 μCi of [γ-^33P] labeled ATP (2,500 Ci/mmole or more) were added, and the mixture was reacted at 30° C. for 20 minutes. Then, 10 μL of 350 mM phosphate buffer was added to the reaction system to stop the reaction. The substrate peptide was adsorbed on a P81 paper filter 96-well plate and then washed with 130 mM phosphate buffer for several times. The radiation activity of the peptide was measured with a liquid scintillation counter. The [γ-^33P] labeled ATP was purchased from Amersham Biosciences Co., Ltd.

[1] = 20 μM unlabeled ATP, 100 μM substrate peptide, 30° C. for 20 minutes, read-out: Inhibitory activity for Aurora A (IC50)

T2 sequence (Q96GD4 whole entry): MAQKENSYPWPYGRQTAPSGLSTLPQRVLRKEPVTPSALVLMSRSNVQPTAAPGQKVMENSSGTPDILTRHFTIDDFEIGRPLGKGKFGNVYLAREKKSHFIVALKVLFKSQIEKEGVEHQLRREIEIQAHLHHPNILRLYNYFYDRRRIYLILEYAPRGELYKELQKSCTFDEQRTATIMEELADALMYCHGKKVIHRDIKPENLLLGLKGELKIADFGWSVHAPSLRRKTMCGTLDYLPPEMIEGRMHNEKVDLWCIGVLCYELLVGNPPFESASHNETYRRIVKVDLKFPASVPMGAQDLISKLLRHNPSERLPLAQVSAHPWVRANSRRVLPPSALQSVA

| SMILES | IC50 (Aurora A) [nM] | IC50 (Aurora B) [nM] | IC50 (Aurora A; [1]) [nM] |
| --- | --- | --- | --- |
| CO[C@@]12CCN(C(=O)O[C@@H](C)C(F)(F)F)[C@@H]1CN(c1nc(C)cc(Nc3cc[nH]n3)n1)C2 [Example 1, (2S)-1,1,1-trifluoropropan-2-yl (3aR,6aR)-3a-metboxy-5-[4-methyl-6-(1H-pyrazol-3-ylamino)pyrimidin-2-yl]hexahydropyrrolo[3,4-b]pyrrole-1(2H)-carboxylate] | 2.3 | 730 |  |
| Cc1cc(Nc2cc[nH]n2)nc(N2C[C@@H]3[C@@H](C2)OCCN3C(=O)O[C@@H](C)C(F)(F)F)n1 [Example 2, (2S)-1,1,1-trifluoropropan-2-yl (4aR,7aR)-6-[4-methyl-6-(1H-pyrazol-3-ylamino)pyrimidin-2-yl]hexahydropyrrolo[3,4-b][1,4]oxazine-4(4aH)-carboxylate] |  | 85 | 1.3 |
| Cc1cc(Nc2cc[nH]n2)nc(N2C[C@@H]3[C@@H](C2)OCCN3C(=O)OC(C)(C)C(F)(F)F)n1 [Example 3, 1,1,1-trifluoro-2-methylpropan-2-yl (4aR,7aR)-6-[4-methyl-6-(1H-pyrazol-3-ylamino)pyrimidin-2-yl]hexahydropyrrolo[3,4-b][1,4]oxazine-4(4aH)-carboxylate] |  | 870 | 5.4 |
